Measurements: patent publication US20160376659A1, “Breast Cancer Biomarker” (The University of Manchester, priority 2015, published 2016)

Tests used:
[1] = system: patient-derived ER+ tumour cells; test: Mammosphere self-renewal of patient-derived ER+ tumour cells; format: cell-based, human; conditions: 10^−6 M 4-hydroxy-tamoxifen vs ethanol control; secondary mammospheres 7-9 days
[2] = system: HBC×22 and HBC×34 tamoxifen-resistant PDXs; test: BCSC activity (MFE, ALDH-positive cells) in tamoxifen-resistant PDXs treated in vivo; design: species or system mice; conditions: RO4929097 10 mg/kg/day oral gavage, 14 days
Description: Fulvestrant (kindly provided by Astrazeneca, 200 mg/kg/week) was administered by subcutaneous injection (0.1 ml/dose) on a weekly basis for fourteen days. […] Xenografts were collected in ice cold DMEM media for live cell assays, histological analysis and RNA and protein extraction. Patient-derived xenograft single cell suspension was obtained using a collagenase-hyaluronidase mixture for digestion (Stem Cell Technologies). […] Primary mammospheres were dissociated and replated in secondary mammosphere suspension culture for a further 7-9 days to measure self-renewal. Patient-derived xenograft cells were cultured for 7-10 days. For cell lines, cells were pre-treated in adherence and then cultured for 5 days in mammosphere culture. Mammosphere formation efficiency (MFE) was calculated by dividing the number of mammospheres formed (≧50 μm) by the original number of single cells seeded (500 cells/cm^2 for primary cells and 200 cells/cm^2 for cell lines) and is expressed as fold change normalised to control or as the mean percentage of MFE (Shaw et al., 2012). Dissociated single cells were suspended in Aldefluor assay buffer containing an ALDH substrate, bodipyaminoacetaldehyde (BAAA) at […], and incubated for 45 min at 37° C. […] Data were acquired on a LSR II (BD) flow cytometer and analysed using the BD FACSDiva™ software.

CC/C(=C(\c1ccccc1)c1ccc(OCCN(C)C)cc1)c1ccccc1 [tamoxifen, (Z)-2-[4-(1,2-diphenylbut-1-enyl)phenoxy]-N,N-dimethylethanamine]
mammosphere self-renewal [1]: about two-fold

CC(C)(C(=O)NCC(F)(F)C(F)(F)F)C(=O)N[C@@H]1C(=O)Nc2ccccc2-c2ccccc21 [RO4929097]
enrichment of BCSCs [2]: significantly reduced
